Experiments:
Type in all cases: in vivo
[1] = system: Matricaria inodora; experiment: Herbicidal action pre-emergence, greenhouse pot test; details: application rate 320 g/ha
[2] = system: Matricaria inodora; experiment: Herbicidal action post-emergence, greenhouse pot test
In short: (§1)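 Greenhouse; sandy loam; one-leaf stage; WP or EC formulation; 80 g/ha or lower; 0.5% additive; 600 L/ha; visual % kill at about 3 weeks relative to untreated.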

[3] = system: Amaranthus retroflexus; experiment: as above
In short: as §1

[4] = system: Echinochloa crus-galli; experiment: as above
In short: as §1

[5] = system: Setaria viridis; experiment: as above
In short: as §1

[6] = system: Lolium rigidum; experiment: as above; details: application rate 80 g/ha
In short: as §1

[7] = system: Pharbitis purpurea; experiment: as above
In short: as §1

[8] = system: Veronica persica; experiment: as above
In short: as §1

[9] = system: Polygonum convolvulus; experiment: as above
In short: as §1

[10] = system: Viola tricolor; experiment: as above
In short: as §1

[11] = system: Abutilon theophrasti; experiment: as above
In short: as §1

[12] = system: Stellaria media; experiment: as above
In short: as §1

[13] = system: Amaranthus retroflexus; experiment: Herbicidal action pre-emergence, greenhouse pot test; details: application rate 80 g/ha
In short: (§2)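 Application rates were 320 g/ha or lower, delivered pre-emergence as a soil-surface spray with 0.5% additive in 600 L/ha water. Plants grew in a greenhouse for about 3 weeks and were then rated visually against untreated controls, 100% being complete kill.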

[14] = system: Hordeum murinum; experiment: as above; details: application rate 320 g/ha
In short: as §2

[15] = system: Echinochloa crus-galli; experiment: as above; details: application rate 320 g/ha
In short: as §2

[16] = system: Avena fatua; experiment: as above; details: application rate 320 g/ha
In short: as §2

[17] = system: Setaria viridis; experiment: as above; details: application rate 320 g/ha
In short: as §2

[18] = system: Lolium rigidum; experiment: as above; details: application rate 320 g/ha
In short: as §2

[19] = system: Pharbitis purpurea; experiment: as above; details: application rate 320 g/ha
In short: as §2

[20] = system: Cyperus esculentus; experiment: as above; details: application rate 320 g/ha
In short: as §2

[21] = system: Alopecurus myosuroides; experiment: as above; details: application rate 320 g/ha
In short: as §2

[22] = system: Veronica persica; experiment: as above; details: application rate 320 g/ha
In short: as §2

[23] = system: Polygonum convolvulus; experiment: as above; details: application rate 320 g/ha
In short: as §2

[24] = system: Viola tricolor; experiment: as above; details: application rate 320 g/ha
In short: as §2

[25] = system: Abutilon theophrasti; experiment: as above; details: application rate 320 g/ha
In short: as §2

[26] = system: Stellaria media; experiment: as above; details: application rate 320 g/ha
In short: as §2

[27] = system: Glycine max; experiment: Crop compatibility post-emergence, greenhouse pot test
In short: (§3)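 Crops grown in sandy loam in greenhouse pots; treated post-emergence at one-leaf stage, 2–3 weeks after sowing, spraying WP or EC formulations as aqueous suspension/emulsion with 0.5% additive at 600 L/ha. Damage scored visually after about 3 weeks against untreated controls (0% = like control, 100% = dead).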

[28] = system: Triticum aestivum; experiment: as above
In short: as §3

[29] = system: Oryza sativa; experiment: as above
In short: as §3

[30] = system: Zea mays; experiment: as above
In short: as §3

[31] = system: Avena fatua; experiment: Herbicidal action post-emergence, greenhouse pot test; details: application rate 80 g/ha
In short: as §1

[32] = system: Alopecurus myosuroides; experiment: as above; details: application rate 80 g/ha, scored visually after about 3 weeks vs untreated controls
In short: as §1

Glycine max (Efficacy in %) ([27]; application rate 5 g/ha) [%]	Structure (SMILES)	Matricaria inodora (Efficacy in %) [1] [%]	Amaranthus retroflexus (Efficacy in %) ([3]; application rate 80 g/ha) [%]	Echinochloa crus-galli (Efficacy in %) ([4]; application rate 80 g/ha) [%]	Setaria viridis (Efficacy in %) ([5]; application rate 80 g/ha) [%]	Pharbitis purpurea (Efficacy in %) ([7]; application rate 80 g/ha) [%]	Veronica persica (Efficacy in %) ([8]; application rate 80 g/ha) [%]	Viola tricolor (Efficacy in %) ([10]; application rate 80 g/ha) [%]	Abutilon theophrasti (Efficacy in %) ([11]; application rate 80 g/ha) [%]	Stellaria media (Efficacy in %) ([12]; application rate 80 g/ha) [%]	Amaranthus retroflexus (Efficacy in %) [13] [%]	Echinochloa crus-galli (Efficacy in %) [15] [%]	Setaria viridis (Efficacy in %) [17] [%]	Lolium rigidum (Efficacy in %) [18] [%]	Pharbitis purpurea (Efficacy in %) [19] [%]	Alopecurus myosuroides (Efficacy in %) [21] [%]	Veronica persica (Efficacy in %) [22] [%]	Polygonum convolvulus (Efficacy in %) [23] [%]	Abutilon theophrasti (Efficacy in %) [25] [%]	Stellaria media (Efficacy in %) [26] [%]	further results
10	CC(Sc1cc(-n2c(=O)cc(C(F)(F)F)n(C)c2=O)c(F)cc1Cl)C(=O)OCC(=O)N(C)C (stereo not drawn) [I.1-241]	100	100	100	100	100	100	100	100	100	100	100	100	100	100	100	100	100	100	100	Matricaria inodora (Efficacy in %) ([2]; application rate 80 g/ha): 100%; Lolium rigidum (Efficacy in %) [6]: 90%; Polygonum convolvulus (Efficacy in %) ([9]; application rate 80 g/ha): 100%; Hordeum murinum (Efficacy in %) [14]: 100%; Avena fatua (Efficacy in %) [16]: 100%; Cyperus esculentus (Efficacy in %) [20]: 100%; Viola tricolor (Efficacy in %) [24]: 100%; Triticum aestivum (Efficacy in %) ([28]; application rate 5 g/ha): 10%; Oryza sativa (Efficacy in %) ([29]; application rate 5 g/ha): 10%
20	CCOC(=O)COC(=O)C(CC)Sc1cc(-n2c(=O)cc(C(F)(F)F)n(C)c2=O)c(F)cc1Cl (stereo not drawn) [I.2-43, 2-Ethoxy-2-oxoethyl 2-({2-chloro-4-fluoro-5-[3-methyl-2,6-dioxo-4-(trifluoromethyl)-3,6-dihydropyrimidin-1(2H)-yl]phenyl}sulfanyl)butanoate]																				Matricaria inodora (Efficacy in %) ([2]; application rate 20 g/ha): 100%; Amaranthus retroflexus (Efficacy in %) ([3]; application rate 20 g/ha): 100%; Echinochloa crus-galli (Efficacy in %) ([4]; application rate 20 g/ha): 100%; Setaria viridis (Efficacy in %) ([5]; application rate 20 g/ha): 100%; Pharbitis purpurea (Efficacy in %) ([7]; application rate 20 g/ha): 100%; Veronica persica (Efficacy in %) ([8]; application rate 20 g/ha): 100%; Polygonum convolvulus (Efficacy in %) ([9]; application rate 20 g/ha): 100%; Viola tricolor (Efficacy in %) ([10]; application rate 20 g/ha): 100%; Abutilon theophrasti (Efficacy in %) ([11]; application rate 20 g/ha): 100%; Stellaria media (Efficacy in %) ([12]; application rate 20 g/ha): 100%; Triticum aestivum (Efficacy in %) ([28]; application rate 20 g/ha): 10%; Zea mays (Efficacy in %) ([30]; application rate 20 g/ha): 20%; Oryza sativa (Efficacy in %) ([29]; application rate 20 g/ha): 20%
	CC(Sc1cc(-n2c(=O)cc(C(F)(F)F)n(C)c2=O)c(F)cc1Cl)C(=O)OCC1CCC(=O)N1 (stereo not drawn) [I.1-255]	100	100	100	100	100	100	100	100	100	100	100	100	100	100	90	100	100	100	100	Matricaria inodora (Efficacy in %) ([2]; application rate 80 g/ha): 100%; Avena fatua (Efficacy in %) [31]: 80%; Lolium rigidum (Efficacy in %) [6]: 100%; Alopecurus myosuroides (Efficacy in %) [32]: 90%; Polygonum convolvulus (Efficacy in %) ([9]; application rate 80 g/ha): 100%; Hordeum murinum (Efficacy in %) [14]: 100%; Avena fatua (Efficacy in %) [16]: 90%; Viola tricolor (Efficacy in %) [24]: 100%; Glycine max (Efficacy in %) ([27]; application rate 20 g/ha): 20%; Triticum aestivum (Efficacy in %) ([28]; application rate 20 g/ha): 10%; Zea mays (Efficacy in %) ([30]; application rate 80 g/ha): 10%; Oryza sativa (Efficacy in %) ([29]; application rate 80 g/ha): 0%
20	COC(=O)CCOC(=O)C(C)(C)Sc1cc(-n2c(=O)cc(C(F)(F)F)n(C)c2=O)c(F)cc1Cl [I.46-2]	100	100	100	100	100	80	80	100	80	100	100	100	100	100	90	100	100	100	100	Matricaria inodora (Efficacy in %) ([2]; application rate 20 g/ha): 100%; Polygonum convolvulus (Efficacy in %) ([9]; application rate 20 g/ha): 100%; Triticum aestivum (Efficacy in %) ([28]; application rate 20 g/ha): 20%; Zea mays (Efficacy in %) ([30]; application rate 20 g/ha): 20%; Oryza sativa (Efficacy in %) ([29]; application rate 80 g/ha): 20%

Reference: patent US11274083B2, “Substituted thiophenyl uracils, salts thereof and the use thereof as herbicidal agents” (Syngenta Crop Protection AG, priority 2017, dated 2022)
